Holding throughout (assay type): in vivo
For one assay, the system named is Phakopsora pachyrhizi. Nature of the assay: Asian soybean rust (PHAKPA) disease control. The following applies: topical, high volume. On the procedure: Technical grades of materials were dissolved in acetone, which were then mixed with nine volumes of water containing 0.011% Tween 20. The fungicide solutions were applied onto soybean seedlings using an automated booth sprayer to run-off. All sprayed plants were allowed to air dry prior to further handling.
Soybean plants (variety Williams 82) were grown in soil-less Metro mix, with one plant per pot. Two weeks old seedlings were used for testing. Plants were inoculated either 3 days prior to or 1 day after fungicide treatments. Plants were incubated for 24 h in a dark dew room at 22° C. and 100% RH then transferred to a growth room at 23° C. for disease to develop. Disease severity was assessed on the sprayed leaves.

The test system of assay [1] is Blumeria graminis f. sp. hordei; Synonym: Erysiphe graminis f. sp. hordei. Description: Barley powdery mildew (ERYSGH) disease control. The following applies: 24 h, 1 Day Protectant, high volume, read-out: Disease Control ERYSGH 1 DP. As to the method: Technical grades of materials were dissolved in acetone, which were then mixed with nine volumes of water containing 110 ppm Triton X-100. The fungicide solutions were applied onto wheat seedlings using an automated booth sprayer to run-off. All sprayed plants were allowed to air dry prior to further handling. All fungicides were evaluated using the aforementioned method for their activity vs. all target diseases. Wheat leaf blotch and brown rust activity were also evaluated using track spray applications, in which case the fungicides were formulated as EC formulations, containing 0.1% Trycol 5941 in the spray solutions. Barley seedlings (variety Harrington) were propagated in soil-less Metro mix, with each pot having 8 to 12 plants, and used in the test when first leaf was fully emerged. Test plants were inoculated by dusting with infected stock plants 24 hr after fungicide treatments. After inoculation the plants were kept in a greenhouse set at 20° C. for disease to develop. Fungicide formulation, application and disease assessment on the sprayed leaves followed the procedures as described in the Example A.

For the next assay, the system named is Erysiphe cichoracearum. Nature of the assay: Powdery mildew of cucumber (ERYSCI) disease control. As to conditions: Golovinomyces cichoracearum, 24 h, 1 Day Protectant, high volume, read-out: Disease Control ERYSCI 1 DP. On the procedure:
Technical grades of materials were dissolved in acetone, which were then mixed with nine volumes of water containing 110 ppm Triton X-100. The fungicide solutions were applied onto wheat seedlings using an automated booth sprayer to run-off. All sprayed plants were allowed to air dry prior to further handling. All fungicides were evaluated using the aforementioned method for their activity vs. all target diseases. Wheat leaf blotch and brown rust activity were also evaluated using track spray applications, in which case the fungicides were formulated as EC formulations, containing 0.1% Trycol 5941 in the spray solutions. Cucumber seedlings (variety Bush Pickle) were grown in soil-less Metro mix, with one plant per pot, and used in the test when 12 to 14 days old. Plants were inoculated with a spore suspension 24 hr following fungicide treatments. After inoculation the plants remained in the greenhouse set at 20° C. until disease was fully expressed. Fungicide formulation, application and disease assessment on the sprayed leaves followed the procedures as described in the Example A.

The test system of another assay is Uncinula necator. Nature of the assay: Grape powdery mildew (UNCINE) disease control. As to conditions: Erysiphe necator, 24 h, High volume application, 1 Day Protectant, read-out: UNCINE 1 DP disease control. As to the method:
Technical grades of materials were dissolved in acetone, which were then mixed with nine volumes of water containing 110 ppm Triton X-100. The fungicide solutions were applied onto wheat seedlings using an automated booth sprayer to run-off. All sprayed plants were allowed to air dry prior to further handling. All fungicides were evaluated using the aforementioned method for their activity vs. all target diseases. Wheat leaf blotch and brown rust activity were also evaluated using track spray applications, in which case the fungicides were formulated as EC formulations, containing 0.1% Trycol 5941 in the spray solutions. Grape seedlings (variety Carignane) were grown in soil-less Metro mix, with one plant per pot, and used in the test when approximately one month old. Plants were inoculated 24 hr after fungicide treatment by shaking spores from infected leaves over test plants. Plants were maintained in a greenhouse set at 20° C. until disease was fully developed. Fungicide formulation, application and disease assessment on the sprayed leaves followed the procedures as described in the Example A.

For assay [2], the system named is Puccinia triticina; Synonym: Puccinia recondite f. sp. tritici. Description: Wheat brown rust (PUCCRT) disease control on wheat seedlings. As to conditions: Puccinia triticina, High volume application, 100 ppm. A digest of the protocol:
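Acetone solutions diluted in nine volumes of water with 110 ppm Triton X-100 sprayed to run-off on first-leaf Yuma wheat seedlings (track spray: EC with 0.1% Trycol 5941). Puccinia triticina spores inoculated before or after treatment; overnight dark dew at 22° C., 100% RH, then greenhouse at 24° C. for disease development.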

The test system of assay [3] is Mycosphaerella graminicola; Anamorph: Septoria tritici. Description: Leaf blotch of wheat (SEPTTR) disease control on wheat seedlings. The following applies: Zymoseptoria tritici, High volume application, 100 ppm. An outline of the steps:
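Wheat seedlings (Yuma, first leaf emerged) sprayed to run-off with compound in acetone/water with 110 ppm Triton X-100, or track-sprayed as EC with 0.1% Trycol 5941. Septoria tritici spores inoculated before or after treatment. Dew chambers, then 20 °C greenhouse. Percent disease control derived from severity (0–100%) relative to untreated plants.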

Assay [4] concerns Magnaporthe grisea; Anamorph: Pyricularia oryzae. Description: whole plant or invertebrate. As to conditions: 24 h, read-out: PYRIOR 1 DP disease control.
Where [5] appears, read: 24 h, 1 Day Protectant, read-out: Disease Control PHAKPA 1DP.
Setting [6] is: 72 h, 3 Day Curative, read-out: Disease Control PHAKPA 3DC.
Where [7] appears, read: 24 h, 1 Day Protectant, read-out: PUCCRT 1DP disease control.
Setting [8] is: 72 h, 3 Day Curative, read-out: PUCCRT 3DC disease control.
The mark [9] stands for this setting: 24 h, 1 Day Protectant, read-out: SEPTTR 1DP disease control.
The mark [10] stands for this setting: 72 h, 3 Day Curative, read-out: SEPTTR 3DC disease control.

Where two headings read alike, the source gives them in different places. Some results are limits rather than exact numbers.

Regarding `COc1ccnc(C(=O)N[C@H]2CCC[C@H](Oc3ccccc3)[C@@H](Oc3ccccc3)[C@H](C)OC2=O)c1OCOC(C)=O` [F20], the pest or weed control at 25 ppm in the assay on Phakopsora pachyrhizi (setting [5]) and in the assay on Phakopsora pachyrhizi (setting [6]) was 80 to 100% in each case. Moreover, the pest or weed control at 100 ppm was in the range of 0 to 80% in assay [1]; 0 to 80% in the assay on Erysiphe cichoracearum; 0 to 80% in the assay on Uncinula necator; 80 to 100% in assay [2] (setting [7]); 80 to 100% in assay [2] (setting [8]); 80 to 100% in assay [3] (setting [9]). Also, the pest or weed control at 100 ppm in assay [3] (setting [10]) and in assay [4] was 80 to 100% each time.
As for `COc1ccnc(C(=O)N[C@H]2CCC[C@H](OCC(C)C)[C@@H](Oc3ccccc3)[C@H](C)OC2=O)c1OCOC(C)=O` [F26], the pest or weed control at 25 ppm in the assay on Phakopsora pachyrhizi (setting [5]) and in the assay with Phakopsora pachyrhizi (setting [6]) was 80 to 100% in each case. Further, the pest or weed control at 100 ppm was 0 to 80% in the assay on Erysiphe cichoracearum; 0 to 80% with Uncinula necator; 80 to 100% in assay [2] (setting [7]); 80 to 100% in assay [2] (setting [8]); 80 to 100% in assay [3] (setting [9]); 80 to 100% in assay [3] (setting [10]).
`COc1ccnc(C(=O)N[C@H]2CCC[C@H](Oc3ccccc3)[C@@H](OCC(C)C)[C@H](C)OC2=O)c1OCOC(C)=O` [F28]: the pest or weed control at 25 ppm in the assay with Phakopsora pachyrhizi (setting [5]) lay within 80 to 100%; in the assay on Phakopsora pachyrhizi (setting [6]), 0 to 80%. The pest or weed control at 100 ppm lay in the range of 80 to 100% in assay [1]; 0 to 80% in the assay on Erysiphe cichoracearum; 0 to 80% in the assay with Uncinula necator; 80 to 100% in assay [2] (setting [7]); 80 to 100% in assay [2] (setting [8]); 80 to 100% in assay [3] (setting [9]). For the same molecule, the pest or weed control at 100 ppm in assay [3] (setting [10]) and in assay [4] was 80 to 100% each time.
As to `COc1ccnc(C(=O)N[C@H]2CCC[C@H](OCC(C)C)[C@@H](OCC(C)C)[C@H](C)OC2=O)c1OCOC(C)=O` [F29], the pest or weed control at 25 ppm in the assay with Phakopsora pachyrhizi (setting [5]) was in the range of 80 to 100%. Moreover, the pest or weed control at 100 ppm (in assay [1]; in the assay with Erysiphe cichoracearum; in the assay with Uncinula necator; in assay [2] (setting [7]); in assay [2] (setting [8]); in assay [3] (setting [9])) was 80 to 100% in each case. The pest or weed control at 100 ppm in assay [3] (setting [10]) and in assay [4] was 80 to 100% each time.
Turning to `COc1ccnc(C(=O)N[C@H]2CCC[C@H](OCc3ccccc3)[C@@H](OCc3ccccc3)[C@H](C)OC2=O)c1OCOC(C)=O` [F30], the pest or weed control at 25 ppm in the assay with Phakopsora pachyrhizi (setting [5]) is 80 to 100%; in the assay on Phakopsora pachyrhizi (setting [6]), 0 to 80%. The pest or weed control at 100 ppm in assay [1] lay within 0 to 80%; in the assay on Erysiphe cichoracearum, 0 to 80%; with Uncinula necator, 0 to 80%; in assay [2] (setting [7]), 80 to 100%; in assay [2] (setting [8]), 80 to 100%; in assay [3] (setting [9]), 80 to 100%. Further, the figures for the pest or weed control at 100 ppm in assay [3] (setting [10]) and in assay [4] were 0 to 80% and 80 to 100%, respectively.
`COc1ccnc(C(=O)N[C@H]2CCC[C@H](OCc3ccccc3)[C@@H](Oc3ccccc3)[C@H](C)OC2=O)c1OCOC(C)=O` [F31]: the pest or weed control at 100 ppm in assay [1] is 0 to 80%; with Erysiphe cichoracearum, less than 0%; in the assay on Uncinula necator, 0 to 80%; in assay [2] (setting [7]), 80 to 100%; in assay [2] (setting [8]), 80 to 100%; in assay [3] (setting [9]), 80 to 100%. Also, the pest or weed control at 100 ppm in assay [3] (setting [10]) and in assay [4] was 80 to 100% in each case.
Turning to `COCCC(=O)Oc1c(OC)ccnc1C(=O)N[C@H]1CCC[C@H](Oc2ccccc2)[C@@H](OCCCc2ccccc2)[C@H](C)OC1=O` [F132], the pest or weed control at 100 ppm in assay [1] lay in the range of 0 to 80%; in the assay with Erysiphe cichoracearum, 0 to 80%; in the assay on Uncinula necator, 0 to 80%; in assay [2] (setting [7]), 80 to 100%; in assay [2] (setting [8]) it was 80 to 100%; in assay [3] (setting [9]), 80 to 100%. The pest or weed control at 100 ppm in assay [3] (setting [10]) lay within 80 to 100%; in assay [4] it was 0 to 80%.
In the case of `COc1ccnc(C(=O)N[C@H]2CCC[C@H](OCCCc3ccccc3)[C@@H](Oc3ccccc3)[C@H](C)OC2=O)c1OC(C)=O` [F134], the pest or weed control at 100 ppm in assay [1] lay within 0 to 80%; in the assay on Erysiphe cichoracearum, 0 to 80%; in the assay with Uncinula necator it was 0 to 80%; in assay [2] (setting [7]) it was 80 to 100%; in assay [2] (setting [8]), 80 to 100%; in assay [3] (setting [9]), 80 to 100%. Also, the pest or weed control at 100 ppm in assay [3] (setting [10]) and in assay [4] was 80 to 100% throughout.
In the case of `COc1ccc(O[C@H]2CCC[C@H](NC(=O)c3nccc(OC)c3OCOC(=O)C(C)C)C(=O)O[C@@H](C)[C@@H]2OC2CCCC2)cc1` [F169], the pest or weed control at 100 ppm in assay [1] is 0 to 80%; in the assay on Erysiphe cichoracearum, 80 to 100%; in the assay with Uncinula necator it was 0 to 80%; in assay [2] (setting [7]), 80 to 100%; in assay [2] (setting [8]), 80 to 100%; in assay [3] (setting [9]), 80 to 100%. Further, the pest or weed control at 100 ppm in assay [3] (setting [10]) and in assay [4] was 80 to 100% each time.
As for `COc1ccnc(C(=O)N[C@H]2CCC[C@H](OCCCC(F)(F)F)[C@@H](OC3CCCC3)[C@H](C)OC2=O)c1OCOC(=O)C(C)C` [F171], the pest or weed control at 100 ppm in assay [1] lay within 0 to 80%; in the assay with Erysiphe cichoracearum, 80 to 100%; in the assay on Uncinula necator it was 0 to 80%; in assay [2] (setting [7]), 80 to 100%; in assay [2] (setting [8]) it was 80 to 100%; in assay [3] (setting [9]), 80 to 100%. Besides, the pest or weed control at 100 ppm in assay [3] (setting [10]) and in assay [4] was 80 to 100% in each case.
In the case of `COc1ccnc(C(=O)N[C@H]2CCC[C@H](OCCCC(F)(F)F)[C@@H](OC3CCCC3)[C@H](C)OC2=O)c1OC(C)=O` [F173], the pest or weed control at 100 ppm in assay [1] lay within 0 to 80%; in the assay on Erysiphe cichoracearum it was 0 to 80%; in the assay with Uncinula necator, 0 to 80%; in assay [2] (setting [7]) it was 80 to 100%; in assay [2] (setting [8]), 80 to 100%; in assay [3] (setting [9]) it was 80 to 100%. The pest or weed control at 100 ppm in assay [3] (setting [10]) and in assay [4] was 80 to 100% throughout.

Values taken from patent publication US9681664B2, “Macrocyclic picolinamides as fungicides” (Dow Agrosciences LLC, priority 2012, dated 2017).
